Our source for the NK2R selectivity, average weight loss and conditioned taste avoidance values is PMC11602716 (Nature, 2024).

For data set [1], the system named is NK1R, NK2R and NK3R. The following applies: cited from earlier work.
In data set [2] the test system is humans. The following applies: cited from earlier work.
The subject of data set [3] is mice. Description: Saccharin-conditioned taste avoidance. The following applies: 0.15% saccharin, s.c. 325 nmol kg^−1 EB1002 or 10 nmol kg^−1 semaglutide, n = 10 per group. Type of data set: in vivo, mouse.

As for neurokinin A (4–10)-S5K/L9mL/M10Nle, the NK2R selectivity entry in data set [1] is given as “some degree of selectivity”.
For retatrutide, the average weight loss entry in data set [2] is recorded as “up to 22.1%”.
Consider `CC[C@H](C)[C@H](NC(=O)[C@H](Cc1ccccc1)NC(=O)[C@H](CCC(=O)O)NC(=O)[C@H](CCCCNC(=O)COCCOCCNC(=O)COCCOCCNC(=O)CC[C@H](NC(=O)CCCCCCCCCCCCCCCCC(=O)O)C(=O)O)NC(=O)[C@H](C)NC(=O)[C@H](C)NC(=O)[C@H](CCC(N)=O)NC(=O)CNC(=O)[C@H](CCC(=O)O)NC(=O)[C@H](CC(C)C)NC(=O)[C@H](Cc1ccc(O)cc1)NC(=O)[C@H](CO)NC(=O)[C@H](CO)NC(=O)[C@@H](NC(=O)[C@H](CC(=O)O)NC(=O)[C@H](CO)NC(=O)[C@@H](NC(=O)[C@H](Cc1ccccc1)NC(=O)[C@@H](NC(=O)CNC(=O)[C@H](CCC(=O)O)NC(=O)C(C)(C)NC(=O)[C@@H](N)Cc1cnc[nH]1)[C@@H](C)O)[C@@H](C)O)C(C)C)C(=O)N[C@@H](C)C(=O)N[C@@H](Cc1c[nH]c2ccccc12)C(=O)N[C@@H](CC(C)C)C(=O)N[C@H](C(=O)N[C@@H](CCCNC(=N)N)C(=O)NCC(=O)N[C@@H](CCCNC(=N)N)C(=O)NCC(=O)O)C(C)C` [semaglutide], for which the conditioned taste avoidance entry in data set [3] is “aversive”.
Consider survodutide, for which, in data set [2], the average weight loss result is recorded as “up to 14.9%”.
